Experimental data: patent publication US8076482B2, “3,3′-spiroindolinone derivatives” (Hoffmann-La Roche Inc., priority 2009, dated 2011)

Target: interaction between p53 and MDM2 proteins (Homo sapiens, UniProt Q00987)
Assay: HTRF assay of inhibition of the p53-MDM2 interaction (GST-MDM2 / biotinylated p53 peptide)
Format: binding
Conditions: 0.02% BSA
Procedure: The ability of the compounds to inhibit the interaction between p53 and MDM2 proteins was measured by an HTRF (homogeneous time-resolved fluorescence) assay in which recombinant GST-tagged MDM2 binds to a peptide that resembles the MDM2-interacting region of p53 (Lane et al.). Binding of GST-MDM2 protein and p53-peptide (biotinylated on its N-terminal end) is registered by the FRET (fluorescence resonance energy transfer) between Europium (Eu)-labeled anti-GST antibody and streptavidin-conjugated Allophycocyanin (APC).
Test is performed in black flat-bottom 384-well plates (Costar) in a total volume of 40 uL containing: 90 nM biotinylate peptide, 160 ng/ml GST-MDM2, 20 nM streptavidin-APC (PerkinElmerWallac), 2 nM Eu-labeled anti-GST-antibody (PerkinElmerWallac), 0.2% bovine serum albumin (BSA), 1 mM dithiothreitol (DTT) and 20 mM […] (TBS) buffer as follows: Add 10 uL of GST-MDM2 (640 ng/ml working solution) in reaction buffer to each well. Add 10 uL diluted compounds (1:5 dilution in reaction buffer) to each well, mix by shaking. Add 20 uL biotinylated p53 peptide (180 nM working solution) in reaction buffer to each well and mix on shaker. Incubate at 37° C. for 1 h. Add 20 uL streptavidin-APC and Eu-anti-GST antibody mixture (6 nM Eu-anti-GST and 60 nM streptavidin-APC working solution) in TBS buffer with 0.2% BSA, shake at room temperature for 30 minutes and read using a TRF-capable plate reader at 665 and 615 nm (Victor 5, Perkin ElmerWallac).

interaction between p53 and MDM2 proteins, sequence (Q00987 whole entry): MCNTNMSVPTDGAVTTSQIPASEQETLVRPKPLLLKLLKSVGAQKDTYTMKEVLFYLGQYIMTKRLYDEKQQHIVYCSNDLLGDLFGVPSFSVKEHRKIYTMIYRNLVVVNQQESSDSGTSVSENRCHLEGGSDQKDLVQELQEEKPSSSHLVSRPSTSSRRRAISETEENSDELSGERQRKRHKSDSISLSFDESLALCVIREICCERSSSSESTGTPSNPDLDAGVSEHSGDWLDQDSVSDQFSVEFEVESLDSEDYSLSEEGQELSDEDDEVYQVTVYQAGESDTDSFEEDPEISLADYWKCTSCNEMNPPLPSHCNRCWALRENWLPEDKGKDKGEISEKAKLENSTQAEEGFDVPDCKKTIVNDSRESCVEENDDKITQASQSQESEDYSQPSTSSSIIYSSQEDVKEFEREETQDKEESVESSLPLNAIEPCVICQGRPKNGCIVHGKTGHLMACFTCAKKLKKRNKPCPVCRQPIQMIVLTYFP

Compound | IC50 [nM]
COC(=O)C1(Oc2ccc(Cl)cc2[C@H]2CC(=S)N[C@@H](c3cc(F)ccc3C)[C@]23C(=O)Nc2cc(Cl)ccc23)CCC1 (racemic) [Example 50, racemic (2′S, 3S, 4′R)-6-chloro-4′-[5-chloro-2-(1-methoxycarbonyl-cyclobutoxy)-phenyl]-2′-(5-fluoro-2-methyl-phenyl)-6′-thioxo spiro[3H-indole-3,3′-piperidine]-2(1H)-one] | 4330
Cc1ccc(F)cc1[C@@H]1NC(=S)C[C@H](c2cc(Cl)ccc2OC(C)(C)C(=O)O)[C@@]12C(=O)Nc1cc(Cl)ccc12 [Example 8, chiral (2′S, 3S, 4′R)-6-chloro-4′-[5-chloro-2-(1-hydroxycarbonyl-1-methyl-ethoxy)-phenyl]-2′-(5-fluoro-2-methyl-phenyl)-6′-thioxo spiro[3H-indole-3,3′-piperidine]-2(1H)-one] | 50

Continued, values first:

IC50 [nM] | Compound
22 | CCC(CC)(Oc1ccc(Cl)cc1[C@H]1CC(=S)N[C@@H](c2cc(F)ccc2C)[C@]12C(=O)Nc1cc(Cl)ccc12)C(=O)NS(C)(=O)=O [Example 24, chiral (2′S, 3S, 4′R)-6-chloro-4′-[5-chloro-2-(2-methanesulfonylamino-1,1-diethyl-2-oxo-ethoxy)-phenyl]-2′-(5-fluoro-2-methyl-phenyl)-6′-thioxo spiro[3H-indole-3,3′-piperidine]-2(1H)-one]
607 | CONC(=O)C(C)(C)Oc1ccc(Cl)cc1[C@H]1CC(=S)N[C@@H](c2cc(F)ccc2C)[C@]12C(=O)Nc1cc(Cl)ccc12 (racemic) [Example 73, racemic (2′S, 3S, 4′R)-6-chloro-4′-[5-chloro-2-(1-methoxycarbamoyl-1-methyl-ethoxy)-phenyl]-2′-(5-fluoro-2-methyl-phenyl)-6′-thioxo spiro[3H-indole-3,3′-piperidine]-2(1H)-one]
1090 | COc1cc(F)c(Cl)cc1[C@@H]1CC(=S)N[C@H](c2cc(F)ccc2C)[C@@]12C(=O)Nc1cc(Cl)ccc12 (racemic) [Example 62]
